Measured values reported in patent US20220041647A1, “ESTRA-1,3,5(10)-TRIENE COMPOUNDS CONDENSED IN POSITION 16(17) WITH A PYRAZOLE RING AS INHIBITORS OF 17-HSD1” (FORENDO PHARMA LTD, priority 2018, published 2022).

Key:
[1] = molecular target: T1, recombinant human 17β-HSD1 (Homo sapiens, UniProt P14061); test: Inhibition of recombinant human 17β-HSD1 (estrone to estradiol conversion, HPLC/radioactivity); format: biochemical; conditions: compound 100 nM; 30 nM estrone, 1 mM NADPH, 30 min RT
T1 construct: made in house; host or cells: Sd9 (Sf9) insect cells, baculovirus (Bac to Bac Expression System)
T1 sequence (P14061 1-328): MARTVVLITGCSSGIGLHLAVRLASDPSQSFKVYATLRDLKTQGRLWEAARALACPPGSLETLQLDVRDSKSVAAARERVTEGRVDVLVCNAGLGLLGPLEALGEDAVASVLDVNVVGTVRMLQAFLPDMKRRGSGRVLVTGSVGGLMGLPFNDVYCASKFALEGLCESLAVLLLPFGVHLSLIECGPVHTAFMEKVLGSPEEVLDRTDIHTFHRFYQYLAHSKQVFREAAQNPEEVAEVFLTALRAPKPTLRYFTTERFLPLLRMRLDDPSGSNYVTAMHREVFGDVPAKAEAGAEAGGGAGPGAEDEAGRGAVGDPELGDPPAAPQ
Method in brief: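 Microsomal human 17β-HSD1 from Sf9 baculovirus (1 μg/ml) was incubated 30 min at RT in 20 mM KH2PO4 pH 7.4 with 30 nM ^3H-estrone, 1 mM NADPH and inhibitor at 1 μM or 0.1 μM (1% DMSO). Estrone and estradiol were separated by HPLC with radioactivity detection. % inhibition = 100 − % conversion relative to uninhibited control.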

[2] = molecular target: T2, recombinant human 17β-HSD2 (Homo sapiens, UniProt P37059); test: Inhibition of recombinant human 17β-HSD2 (estradiol to estrone conversion, HPLC/radioactivity); format: biochemical; conditions: compound 1 μM; 50 nM estradiol, 1 mM NADH, 30 min RT
T2 construct: made in house; host or cells: Sd9 (Sf9) insect cells, baculovirus (Bac to Bac Expression System)
T2 sequence (P37059 1-387): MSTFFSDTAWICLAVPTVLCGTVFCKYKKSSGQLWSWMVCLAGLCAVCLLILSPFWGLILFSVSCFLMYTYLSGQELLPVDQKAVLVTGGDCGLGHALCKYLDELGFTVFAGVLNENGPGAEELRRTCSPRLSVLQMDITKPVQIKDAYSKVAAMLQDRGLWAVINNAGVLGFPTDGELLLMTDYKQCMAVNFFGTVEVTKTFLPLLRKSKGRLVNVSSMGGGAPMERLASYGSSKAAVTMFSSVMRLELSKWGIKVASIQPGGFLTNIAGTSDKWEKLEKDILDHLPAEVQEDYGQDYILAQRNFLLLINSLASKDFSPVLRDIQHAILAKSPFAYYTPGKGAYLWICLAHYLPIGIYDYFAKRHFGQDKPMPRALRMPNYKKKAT
Method in brief: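 Membrane extract of Sf9 cells expressing recombinant human 17β-HSD2 (4 μg/ml), in 20 mM KH2PO4 pH 8.5 with 50 nM ^3H-spiked estradiol and 1 mM NADH, 30 min at RT, 1% DMSO. Compound at 1 μM or 0.1 μM; estrone formation by HPLC radioactivity, % inhibition relative to uninhibited conversion.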

[3] = Metabolic stability assay, human hepatocyte incubations; format: in vitro ADME; conditions: compound 1 μM, human hepatocytes, 0-60 min at 37° C.; read-out: Human hepatocytes MetStab T½ min
Description: Compound stock solutions of the invention were prepared in […]. Final concentration of DMSO was adjusted to 1% in all samples. The in vitro metabolic stability of the compounds of the invention was determined for exemplified compounds using human hepatocyte incubations; study compounds at concentration of 1 μM were incubated 0, 10, 20, 40 and 60 min at 37° C. Samples were collected at all time points and compounds were detected by LC-MS/MS analysis. The percent compound remaining is calculated by comparing the peak area of the parent compound at each time point to time zero. In vitro metabolic stability was determined as half life (T1/2), which was determined by regression analysis of the percent parent disappearance vs. time curve.

[4] = test system: HSD1 enzyme that is expressed in rabbit placenta tissue; test: Inhibition of E1 to E2 conversion in rabbit placenta tissue homogenate; format: biochemical; conditions: compound 100 nM, 30 nM estrone, 1 mM β-NADPH, 30 min
Method in brief: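 Rabbit placenta homogenate (20 mM KH2PO4, 1 mM EDTA, pH 7.4) incubated 30 min with 1 mM β-NADPH, 30 nM estrone plus 5 nM [3H]-estrone tracer, and inhibitor at 1 μM or 0.1 μM (1% DMSO). Stopped with TCA; estrone and estradiol resolved by HPLC with scintillation counting; % inhibition = 100 − % conversion relative to uninhibited control.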

Compound: C[C@]12CCC3c4cccc(F)c4CCC3C1[C@H](CCC(=O)N1CCOCC1)c1c[nH]nc12 (stereo partly drawn) [Compound 234, 3-((8aS,12S)-3-fluoro-8a-methyl-1,2,6b,7,8,8a,10,12,12a,12b-decahydronaphtho[2′,1′:4,5]indeno[1,2-c]pyrazol-12-yl)-1-morpholinopropan-1-one]
- inhibition at 0.1 µM [1]: 85%
- inhibition at 1 µM [2]: 0%
- half-life at 1 μM [3]: 26 min

Compound: CN(CC(C)(C)O)C(=O)CC[C@@H]1c2c[nH]nc2[C@@]2(C)CCC3c4cccc(F)c4CCC3C12 (stereo partly drawn) [Compound 243, 3-((8aS,12S)-3-fluoro-8a-methyl-1,2,6b,7,8,8a,10,12,12a,12b-decahydronaphtho[2′,1′:4,5]indeno[1,2-c]pyrazol-12-yl)-N-(2-hydroxy-2-methylpropyl)-N-methylpropanamide]
- inhibition at 0.1 µM [1]: 80%
- inhibition at 1 µM [2]: 5%
- half-life at 1 μM [3]: 15 min

Compound: CC(C)(C)NC(=O)CC[C@@H]1c2c[nH]nc2[C@@]2(C)CCC3c4ccccc4CCC3C12 (stereo partly drawn) [Compound 201, N-(tert-butyl)-3-((8aS,12S)-8a-methyl-1,2,6b,7,8,8a,10,12,12a,12b-decahydronaphtho[2′,1′:4,5]indeno[1,2-c]pyrazol-12-yl)propanamide]
- inhibition at 0.1 µM [1]: 87%
- inhibition at 1 µM [2]: 4%
- half-life at 1 μM [3]: 13 min

Compound: C[C@]12CCC3c4ccc(Cl)cc4CCC3C1[C@H](CCC(=O)Nc1cccc(F)n1)c1c[nH]nc12 (stereo partly drawn) [Compound 135, 3-((8aS,12S)-4-chloro-8a-methyl-1,2,6b,7,8,8a,10,12,12a,12b-decahydronaphtho[2,1′:4,5]indeno[1,2-c]pyrazol-12-yl)-N-(6-fluoropyridin-2-yl)propanamide]
- inhibition at 0.1 µM [1]: 86%
- inhibition at 1 µM [2]: 2%
- Rabbit placenta inhibition % @100 nM [4]: 31%

Compound: C[C@]12CCC3c4ccccc4CCC3C1[C@H](CCC(=O)N1CCCC1)c1c[nH]nc12 (stereo partly drawn) [Compound 147, 3-((8aS,12S)-8a-methyl-1,2,6b,7,8,8a,10,12,12a,12b-decahydronaphtho[2′,1′:4,5]indeno[1,2-c]pyrazol-12-yl)-1-(pyrrolidin-1-yl)propan-1-one]
- inhibition at 0.1 µM [1]: 86%
- inhibition at 1 µM [2]: 11%
- half-life at 1 μM [3]: 9 min

Compound: C[C@]12CCC3c4ccc(F)cc4CCC3C1[C@H](CCC(=O)Nc1cccnn1)c1c[nH]nc12 (stereo partly drawn) [Compound 114, 3-((8aS,12S)-4-fluoro-8a-methyl-1,2,6b,7,8,8a,10,12,12a,12b-decahydronaphtho[2′,1′:4,5]indeno[1,2-c]pyrazol-12-yl)-N-(pyridazin-3-yl)propanamide]
- inhibition at 0.1 µM [1]: 53%
- inhibition at 1 µM [2]: -1%
- Rabbit placenta inhibition % @100 nM [4]: 43%

Compound: CN(CC1CC1)C(=O)CC[C@@H]1c2c[nH]nc2[C@@]2(C)CCC3c4cccc(F)c4CCC3C12 (stereo partly drawn) [Compound 60, N-(cyclopropylmethyl)-3-((8aS,12S)-3-fluoro-8a-methyl-1,2,6b,7,8,8a,10,12,12a,12b-decahydronaphtho[2′,1′:4,5]indeno[1,2-c]pyrazol-12-yl)-N-methylpropanamide]
- inhibition at 0.1 µM [1]: 93%
- inhibition at 1 µM [2]: 9%
- Rabbit placenta inhibition % @100 nM [4]: 16%

Compound: Cc1cc(NC(=O)CC[C@@H]2c3c[nH]nc3[C@@]3(C)CCC4c5cccc(F)c5CCC4C23)no1 (stereo partly drawn) [Compound 78, 3-((8aS,12S)-3-fluoro-8a-methyl-1,2,6b,7,8,8a,10,12,12a,12b-decahydronaphtho[2′,1′:4,5]indeno[1,2-c]pyrazol-12-yl)-N-(5-methylisoxazol-3-yl)propanamide]
- inhibition at 0.1 µM [1]: 87%
- inhibition at 1 µM [2]: 3%
- Rabbit placenta inhibition % @100 nM [4]: 39%

Compound: C[C@]12CCC3c4cccc(F)c4CCC3C1[C@H](CCC(=O)Nc1nncs1)c1c[nH]nc12 (stereo partly drawn) [Compound 81, 3-((8aS,12S)-3-fluoro-8a-methyl-1,2,6b,7,8,8a,10,12,12a,12b-decahydronaphtho[2′,1′:4,5]indeno[1,2-c]pyrazol-12-yl)-N-(1,3,4-thiadiazol-2-yl)propanamide]
- inhibition at 0.1 µM [1]: 81%
- inhibition at 1 µM [2]: 3%
- Rabbit placenta inhibition % @100 nM [4]: 31%

Compound: Cn1ccc(NC(=O)CC[C@@H]2c3c[nH]nc3[C@@]3(C)CCC4c5ccccc5CCC4C23)n1 (stereo partly drawn) [Compound 186, 3-((8aS,12S)-8a-methyl-1,2,6b,7,8,8a,10,12,12a,12b-decahydronaphtho[2′,1′:4,5]indeno[1,2-c]pyrazol-12-yl)-N-(1-methyl-1H-pyrazol-3-yl)propanamide]
- inhibition at 0.1 µM [1]: 81%
- inhibition at 1 µM [2]: 1%
- Rabbit placenta inhibition % @100 nM [4]: 11%

Compound: C[C@]12CCC3c4cccc(F)c4CCC3C1[C@H](CCC(=O)Nc1cccc(F)n1)c1c[nH]nc12 (stereo partly drawn) [Compound 204, 3-((8aS,12S)-3-fluoro-8a-methyl-1,2,6b,7,8,8a,10,12,12a,12b-decahydronaphtho[2′,1′:4,5]indeno[1,2-c]pyrazol-12-yl)-N-(6-fluoropyridin-2-yl)propanamide]
- inhibition at 0.1 µM [1]: 96%
- inhibition at 1 µM [2]: 1%
- Rabbit placenta inhibition % @100 nM [4]: 63%

Compound: C[C@]12CCC3c4ccccc4CCC3C1[C@H](CCC(=O)Nc1cccnn1)c1c[nH]nc12 (stereo partly drawn) [Compound 255, 3-((8aS,12S)-8a-methyl-1,2,6b,7,8,8a,10,12,12a,12b-decahydronaphtho[2′,1′:4,5]indeno[1,2-c]pyrazol-12-yl)-N-(pyridazin-3-yl)propanamide]
- inhibition at 0.1 µM [1]: 66%
- inhibition at 1 µM [2]: 0%
- Rabbit placenta inhibition % @100 nM [4]: 46%

Compound: CN(C)C(=O)c1ccc(NC(=O)CC[C@@H]2c3c[nH]nc3[C@@]3(C)CCC4c5ccccc5CCC4C23)nc1 (stereo partly drawn) [Compound 183, N,N-dimethyl-6-(3-((8aS,12S)-8a-methyl-1,2,6b,7,8,8a,10,12,12a,12b-decahydronaphtho[2′,1′:4,5]indeno[1,2-c]pyrazol-12-yl)propanamido)nicotinamide]
- inhibition at 0.1 µM [1]: 91%
- inhibition at 1 µM [2]: 10%
- Rabbit placenta inhibition % @100 nM [4]: 50%

Compound: C[C@]12CCC3c4ccccc4CCC3C1[C@H](CCC(=O)Nc1ccc(N3CCOCC3)cn1)c1c[nH]nc12 (stereo partly drawn) [Compound 252, 3-((8aS,12S)-8a-methyl-1,2,6b,7,8,8a,10,12,12a,12b-decahydronaphtho[2′,1′:4,5]indeno[1,2-c]pyrazol-12-yl)-N-(5-morpholinopyridin-2-yl)propanamide]
- inhibition at 0.1 µM [1]: 90%
- inhibition at 1 µM [2]: 7%
- Rabbit placenta inhibition % @100 nM [4]: 46%

Compound: C[C@]12CCC3c4ccccc4CCC3C1[C@H](CCC(=O)Nc1cccc(F)n1)c1c[nH]nc12 (stereo partly drawn) [Compound 258, N-(6-fluoropyridin-2-yl)-3-((8aS,12S)-8a-methyl-1,2,6b,7,8,8a,10,12,12a,12b-decahydronaphtho[2′,1′:4,5]indeno[1,2-c]pyrazol-12-yl)propanamide]
- inhibition at 0.1 µM [1]: 90%
- inhibition at 1 µM [2]: 2%
- Rabbit placenta inhibition % @100 nM [4]: 43%

Compound: Cc1nnc(NC(=O)CC[C@@H]2c3c[nH]nc3[C@@]3(C)CCC4c5cccc(F)c5CCC4C23)o1 (stereo partly drawn) [Compound 66, 3-((8aS,12S)-3-fluoro-8a-methyl-1,2,6b,7,8,8a,10,12,12a,12b-decahydronaphtho[2′,1′:4,5]indeno[1,2-c]pyrazol-12-yl)-N-(5-methyl-1,3,4-oxadiazol-2-yl)propanamide]
- inhibition at 0.1 µM [1]: 74%
- inhibition at 1 µM [2]: 3%
- Rabbit placenta inhibition % @100 nM [4]: 39%
